Patent US6727407B1, “NUCLEIC ACIDS ENCODING THE ARABIDOPSIS PROTEIN KINASE β-SUBUNIT CKB3 AND A METHOD OF ALTERING CIRCADIAN RHYTHMS AND FLOWERING IN A PLANT BY TRANFORMING WITH A NUCLEIC ACID ENCODING A PROTEIN KINASE β-SUBUNIT” (Regents of the University of California, priority 1998, dated 2004)

Experiments:
[1] = test system: major DNA-protein complex containing CCA1; assay: EMSA: formation of the DNA-protein complex containing CCA1 in plant whole-cell extracts (A2 fragment of Lhcb1*3); format: biochemical, Arabidopsis; conditions: WCE preincubated 45 min at 30° C.
Procedure: WCE were incubated in the absence (lane 1) or presence (lane 2) of λ protein phosphatase (200 units added to 200 μl) for 30 min at 30° C. […] WCE from wild type (WT) and a CCA1-ox line (CCA1-ox) (7) grown in 12:12 photoperiods were used in the EMSA. […] WCE were incubated with the indicated inhibitor for 45 min at 30° C. Lane 1, no inhibitors; lane 2, 5 mM 2,3-diphosphoglycerate (D.G.); lane 3, 100 μM quercetin. Arrows indicate the position of the major DNA-protein complex containing CCA1.
CCA1 was incubated with 0.1 ng of end-labeled A2 fragment of the Arabidopsis Lhcb 1*3 gene (56) in the presence of 0.5 μg of poly(dI-dC) at 25° C. for 15 min. WCE were incubated in preincubation buffer (50 mM Tris-HCl, pH 7.5, 2 mM MnCl2, 5 mM DTT, 0.1 mM EDTA, 0.01% Brij 35) at 30° C. for 45 min, then incubated with the A2 probe in the presence of 1 μg of poly(dI-dC). The EMSA buffer and electrophoresis conditions have been described (56). DNA-protein complexes were detected by autoradiography.
The A2 fragment used as a probe includes known binding sites for G-box and CAAT binding proteins (56). […] Further evidence that the marked complex contains CCA1 includes the observations (data not shown) that this complex is absent in extracts prepared from CCA1-null mutant plants and that addition of anti-CCA1 antibodies inhibits its formation. […]

[2] = molecular target: CK1 and CK2; conditions: cited from earlier work
[3] = test system: recombinant CK2; assay: In vitro kinase assay: phosphorylation of GST-CCA1 by recombinant CK2; format: biochemical, Arabidopsis; conditions: 10 mM inhibitor, recombinant CK2, [γ-32P]ATP
Procedure: (§1) GST (lanes 1 and 4) or GST-CCA1 (lanes 2, 3, 5-7) were incubated with 160 μg of WCE in the absence (lanes 1, 2, 4, and 5) or presence (lane 3) of 10 mM 2,3-diphosphoglycerate (D. G.), with recombinant CK2 (rCK2) in the absence (lane 6) or presence of 10 mM 2,3-diphosphoglycerate (lane 7) together with [γ-^32P]ATP (lanes 1-3, 6, and 7) or [γ-^32P]GTP (lanes 4 and 5). The arrow indicates the position of the full-length GST-CCA1 protein.
(§2) GST-CCA1 bound to glutathione-agarose beads was resuspended in 50 μl of CK2 buffer (50 mM Tris-HCl, pH 7.5, 10 mM MgCl2, 100 mM NaCl, 1 mM DTT. 0.1 mM ATP or GTP) in the presence of 5-10 μCi of [γ-^32P]ATP or GTP. The reaction was started by adding CK2 or whole-cell extracts (WCE) and incubating samples at 30° C. for 30 min. WCE were prepared as described previously (3) except that the phosphatase inhibitor cocktail (5 mM NH4VO3, 0.2 mM ammonium molybdate, 1 mM EGTA, 50 mM NaF) was added to extraction buffer. The beads were washed with phosphate-buffered saline (PBS) containing 1% Triton X-100 and resuspended in 1X SDS-PAGE sample buffer. The phosphorylated samples were separated by 10% SDS-PAGE. ^32P-labeled bands were detected by autoradiography and quantitated with a PhosphorImager.
(§3) We next examined whether plants contain a CK2-like protein kinase activity that can phosphorylate CCA1 in vitro. […]

[4] = test system: CK2-like activity in Arabidopsis whole-cell extracts; assay: In vitro kinase assay: phosphorylation of GST-CCA1 by Arabidopsis whole-cell extracts; format: biochemical; conditions: 10 mM inhibitor, 160 μg WCE, [γ-32P]ATP, 30° C. 30 min
Procedure: as §1, §2, §3

| Compound | formation of the DNA-protein complex containing CCA1 ([1]; 100 μM inhibitor) | kinase inhibition specificity [2] | reduction of phosphorylation of CCA1 [3] [%] | formation of the DNA-protein complex containing CCA1 ([1]; 5 mM inhibitor) | reduction of incorporation of ATP into GST-CCA1 [4] [%] |
| --- | --- | --- | --- | --- | --- |
| O=c1c(O)c(-c2ccc(O)c(O)c2)oc2cc(O)cc(O)c12 [quercetin] | abolished | specific to CK2 | – | – | – |
| 2,3-diphosphoglycerate | – | inhibits both CK1 and CK2 | 77 | abolished | 63 |
